The source of these data is patent US8071345B2, “Stabilized subtilisin composition” (Novozymes A/S, priority 2006, dated 2011).

Assay [1] addresses T1, Savinase (Lederbergia lenta, UniProt P29600).
T1 construct: Novozymes A/S
T1 sequence (P29600 1-269): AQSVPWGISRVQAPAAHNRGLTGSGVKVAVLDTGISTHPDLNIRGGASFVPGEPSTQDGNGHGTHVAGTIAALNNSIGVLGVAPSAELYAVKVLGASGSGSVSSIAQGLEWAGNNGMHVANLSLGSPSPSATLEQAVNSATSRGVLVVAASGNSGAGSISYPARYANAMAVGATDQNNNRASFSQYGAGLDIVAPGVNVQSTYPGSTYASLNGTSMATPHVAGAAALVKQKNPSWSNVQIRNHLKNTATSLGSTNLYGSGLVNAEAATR
The assay is described as follows: biochemical. Here is the method:
The inhibition constant KI=[E][I]/[EI] for the inhibition of Savinase was determined using standard methods under the following conditions:
Substrate: Succinyl-Alanine-Alanine-Proline-para-nitro-anilide=SAAPFpNA (Sigma S-7388).
Buffer: 0.1 M phosphate buffer pH 7.5
Enzyme concentration in assay≈1×10^−8 M
The initial rate of substrate hydrolysis was determined with and without inhibitor at nine substrate concentrations in the range of 0.01 mM to 2 mM using an automated spectrophotometer.
The inhibition constant KI was determined using Sigma Plot 9.0, Enzyme Kinetics Module 1.1

Assay [2] has as its target subtilisin (Bacillus licheniformis, UniProt P00780). As to conditions: Keller et al, Biochem. Biophys. Res. Com. 176, 1991; cited from earlier work.
In assay [3] the test system is proteolytic enzymes. The conditions noted are these: as claimed in WO 92/19707; cited from earlier work.
Setting [4] is: Example 2, acids, 0.1 M phosphate buffer pH 7.5, 25° C., substrate SAAPFpNA 0.01-2 mM, enzyme ≈1×10^−8 M, read-out: Ki.
[5] abbreviates: Example 1, 0.1 M phosphate buffer pH 7.5, 25° C., substrate SAAPFpNA 0.01-2 mM, enzyme ≈1×10^−8 M, read-out: Ki.

Read-outs that look alike come from different tables or passages of the source.

subtilisin, sequence (P00780 106-379): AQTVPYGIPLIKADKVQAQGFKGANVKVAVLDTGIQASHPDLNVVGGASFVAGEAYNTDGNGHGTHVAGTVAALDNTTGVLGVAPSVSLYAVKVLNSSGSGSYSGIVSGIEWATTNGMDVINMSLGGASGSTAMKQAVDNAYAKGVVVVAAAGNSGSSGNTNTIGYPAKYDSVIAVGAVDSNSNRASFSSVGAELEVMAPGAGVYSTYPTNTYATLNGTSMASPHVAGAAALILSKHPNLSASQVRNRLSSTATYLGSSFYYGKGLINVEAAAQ

Regarding `Nc1ccccc1C(=O)O` [2-aminobenzoic acid], in assay [1], the Ki (commonly a measure of affinity in units of concentration, obtained from inhibition or displacement) amounted to 16 mM.

In the case of `O=C(O)c1ccccc1Cl` [2-chlorobenzoic acid], the inhibition constant (Ki) in assay [1] (setting [4]) worked out at 16 mM.

On to `O=C(O)Cc1ccccc1Cl` [2-chlorophenylacetic acid], for which the Ki in assay [1] is 11 mM.

Regarding `O=Cc1ccc(O)c(O)c1` [3,4-dihydrozybenzaldehyde], the inhibitory constant (Ki) in assay [1] was 11 mM.

Turning to `OB(O)c1cc(Cl)cc(Cl)c1` [3,5-dichlorophenylboronic acid], the “capacity as subtilisin inhibitor” value in assay [2] is “particularly effective”.

Turning to `O=C(O)c1cc(Cl)cc(Cl)c1` [3,5-dichorobenzoic acid], in assay [1] (setting [5]), the Ki worked out at 2 mM.

With `O=C(O)c1cc(O)cc(O)c1` [3,5-dihydroxybenzoic acid], the Ki in assay [1] (setting [4]) was determined as 76 mM.

For the compound `O=C(O)CCc1cccc(Cl)c1` [3-(3-chlorophenyl)propionic acid], the Ki in assay [1] (setting [4]) came out at 5 mM.

In the case of `O=C(O)CCc1ccc(Cl)cc1` [3-(4-chlorophenyl)propionic acid], in assay [1] (setting [4]), the inhibition constant Ki amounted to 10 mM.

`O=C(O)c1cccc(CCl)c1` [3-(chloromethyl)benzoic acid]: the Ki in assay [1] (setting [4]) came to 32 mM.

Consider `Nc1cccc(C(=O)O)c1` [3-aminobenzoic acid], for which the Ki in assay [1] (setting [4]) was 43 mM.

In the case of `O=C(O)c1cccc(Br)c1` [3-bromobenzoic acid], in assay [1] (setting [4]), the Ki worked out at 6 mM.

Take `O=C(O)c1cccc(Cl)c1` [3-chlorobenzoic acid]: the Ki in assay [1] was found to be 4 mM.

For `O=C(O)Cc1cccc(Cl)c1` [3-chlorophenylacetic acid], in assay [1], the Ki is 7 mM.

As to `O=C(O)c1cccc(F)c1` [3-fluorobenzoic acid], the Ki in assay [1] (setting [4]) was found to be 17 mM.

`O=Cc1cccc(C(=O)O)c1` [3-formylbenzoic acid]: the Ki in assay [1] (setting [4]) came out at 27 mM.

Consider `O=Cc1cccc(O)c1` [3-hydroxybenzaldehyde], for which, in assay [1] (Example 3, aldehydes, 0.1 M phosphate buffer pH 7.5, 25° C., substrate SAAPFpNA 0.01-2 mM, enzyme ≈1×10^−8 M, read-out: Ki), the Ki was found to be 16 mM.

As to `O=C(O)c1cccc(O)c1` [3-hydroxybenzoic acid], the inhibitory constant (Ki) in assay [1] (setting [4]) was determined as 29 mM.

With `O=C(O)c1cccc(I)c1` [3-iodobenzoic acid], in assay [1] (setting [4]), the Ki was found to be 9 mM.

Take `O=C(O)c1cccc([N+](=O)[O-])c1` [3-nitrobenzoic acid]: the Ki in assay [1] (setting [4]) was found to be 9 mM.

On to `Nc1ccc(C(=O)O)cc1` [4-aminobenzoic acid], for which, in assay [1] (setting [4]), the Ki amounted to 82 mM.

Turning to `O=C(O)Cc1ccc(Cl)cc1` [4-chlorophenylacetic acid], in assay [1] (setting [4]), the Ki came to 11 mM.

As to `O=Cc1ccc(C(=O)O)cc1` [4-formylbenzoic acid], the Ki in assay [1] (setting [5]) was determined as 25 mM.

On to `O=C(O)CCCc1ccccc1` [4-phenylbutyric acid], for which the Ki in assay [1] (setting [4]) was determined as 19 mM.

As for `O=C(O)c1ccccc1` [Benzoic Acid], the Ki in assay [1] came out at 22 mM.

`O=C(O)Cc1ccccc1` [Phenylacetic acid] yielded a Ki in assay [1] of 10 mM.

On to `O=C(O)CCc1ccccc1` [Phenylpropionic acid], for which the Ki in assay [1] (setting [5]) was 9 mM.

Consider `O=C(O)c1ccc(C(=O)O)cc1` [Terephtalic acid (4-carboxybenzoic acid)], for which the Ki in assay [1] (setting [5]) amounted to 99 mM.

In the case of `CC(=O)Nc1cccc(B(O)O)c1` [acetamidophenyl boronic acid], in assay [3], the “inhibitor of proteolytic enzymes” value was “superior inhibitor”.

With `CB(O)O` [methylboronic acid], in assay [2], the “capacity as subtilisin inhibitor” value was “poorest inhibitor”.
